Measurements: BindingDB's records for doi:10.1016/s0960-894x(99)00012-8 (Nippon Steel, 1999)

Key:
[1] = Inhibitory activity against porcine pancreatic trypsin (TRP)
[2] = Inhibitory activity against bovine pancreatic alpha-chymotrypsin (alpha-CT)
[3] = Inhibitory activity against porcine pancreatic elastase (PPE)
[4] = Inhibitory activity against porcine pancreatic trypsin (TRP); remark: listed apart in the source

| SMILES | IC50 [1] [nM] | IC50 [2] [nM] | IC50 [3] [nM] | IC50 [4] [nM] |
| --- | --- | --- | --- | --- |
| CCCCC(NC(=O)c1ccccc1)C(C)(C)C(=O)OC(=O)C(C)(C)C(CCCC)NC(=O)c1ccccc1 (centres undefined) [1,1-dimethyl-2-phenylcarboxamidoheptanoic anhydride] | 2900 | 5.3 | 34 | – |
| CCCC(NC(=O)c1ccccc1)C(C)(C)C(=O)OC(=O)C(C)(C)C(CCC)NC(=O)c1ccccc1 (centres undefined) [1,1-dimethyl-2-phenylcarboxamidohexanoic anhydride] | 8800 | 49 | – | – |
| CCCCCCC(NC(=O)c1ccccc1)C(C)(C)C(=O)OC(=O)C(C)(C)C(CCCCCC)NC(=O)c1ccccc1 (centres undefined) [1,1-dimethyl-2-phenylcarboxamidononanoic anhydride] | 3300 | 44 | 180 | – |
| CCCCCC(NC(=O)c1ccccc1)C(C)(C)C(=O)OC(=O)C(C)(C)C(CCCCC)NC(=O)c1ccccc1 (centres undefined) [1,1-dimethyl-2-phenylcarboxamidooctanoic anhydride] | 3900 | 31 | 61 | – |
| CCC(NC(=O)c1ccccc1)C(C)(C)C(=O)OC(=O)C(C)(C)C(CC)NC(=O)c1ccccc1 (centres undefined) [1,1-dimethyl-2-phenylcarboxamidopentanoic anhydride] | 2200 | 72 | 210 | – |
| CC(C)(CNC(=O)c1ccccc1)C(=O)OC(=O)C(C)(C)CNC(=O)c1ccccc1 [1,1-dimethyl-2-phenylcarboxamidopropanoic anhydride] | 990 | 140 | 2600 | – |
| CCCCCC(NC(=O)CCC)C(C)(C)C(=O)OC(=O)C(C)(C)C(CCCCC)NC(=O)CCC (centres undefined) [1,1-dimethyl-2-propylcarboxamidooctanoic anhydride] | 18000 | 810 | 55 | – |
| CC(C)(C(=O)OC(=O)C(C)(C)C(CCc1ccccc1)NC(=O)c1ccccc1)C(CCc1ccccc1)NC(=O)c1ccccc1 (centres undefined) [1,1-dimethyl-4-phenyl-2-phenylcarboxamidopentanoic anhydride] | 2700 | 18 | 64 | – |
| CCCC(=O)NC(CCc1ccccc1)C(C)(C)C(=O)OC(=O)C(C)(C)C(CCc1ccccc1)NC(=O)CCC (centres undefined) [1,1-dimethyl-4-phenyl-2-propylcarboxamidopentanoic anhydride] | 1200 | – | – | – |
| CC(C)(C(=O)OC(=O)C(C)(C)C(NC(=O)c1ccc(C#N)cc1)c1ccccc1Cl)C(NC(=O)c1ccc(C#N)cc1)c1ccccc1Cl (centres undefined) [2-(2-chlorophenyl)-2-(4-cyanophenylcarboxamido)-1,1-dimethylpropanoic anhydride] | – | 250 | 1100 | 8200 |

Second part, the compound after the results:

| IC50 [1] [nM] | IC50 [2] [nM] | IC50 [3] [nM] | IC50 [4] [nM] | SMILES |
| --- | --- | --- | --- | --- |
| – | 190 | 2100 | 18000 | Cc1ccccc1C(NC(=O)c1ccc(C#N)cc1)C(C)(C)C(=O)OC(=O)C(C)(C)C(NC(=O)c1ccc(C#N)cc1)c1ccccc1C (centres undefined) [2-(4-cyanophenylcarboxamido)-1,1-dimethyl-2-(2-methylphenyl)propanoic anhydride] |
| – | 15 | 210 | 1800 | CC(C)(C(=O)OC(=O)C(C)(C)C(NC(=O)c1ccc(C#N)cc1)c1ccccc1)C(NC(=O)c1ccc(C#N)cc1)c1ccccc1 (centres undefined) [2-(4-cyanophenylcarboxamido)-1,1-dimethyl-2-phenylpropanoic anhydride] |
| 1600 | 220 | 180 | – | CC(C)(C(=O)OC(=O)C(C)(C)C(NC(=O)c1ccc(C#N)cc1)C1CC=CCC1)C(NC(=O)c1ccc(C#N)cc1)C1CC=CCC1 (centres undefined) [2-(4-cyanophenylcarboxamido)-2-cyclohex-3-enyl-1,1-dimethylpropanoic anhydride] |
| – | 2.1 | 36 | 300 | CC(C)(C(=O)OC(=O)C(C)(C)C(CCc1ccccc1)NC(=O)c1ccc(C#N)cc1)C(CCc1ccccc1)NC(=O)c1ccc(C#N)cc1 (centres undefined) [[2,2-dimethyl-3-(N-(4-cyanobenzoyl)aminoi)-5-phenylpentanoic anhydride]] |
